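Compound exposure: 48 hours, 5 concentrations, 96-well plates. Abbreviation: GI50, concentration required for 50% inhibition of growth.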 The source made the active and inactive calls. Rule as the data show it: active = GI50 up to about 1.1 µM and inactive = higher.

Holding throughout (assay): growth of human tumour cells (NCI), 48 h
Assay [1] relates to A498.
Assay [2] relates to CAKI-1.
The test system of assay [3] is HL-60.
Assay [4] has as its system IGROV-1.
Assay [5] relates to K562.
The test system of assay [6] is MOLT-4.
For assay [7], the system named is Malme-3M.
For assay [8], the system named is NCI-H226.
The subject of assay [9] is NCI-H522.
Assay [10] deals with OVCAR-3.
Assay [11] relates to RXF 393.
The test system of assay [12] is SF-268.
Assay [13] concerns SR.
The test system of assay [14] is UACC-257.
For assay [15], the system named is UO-31.
Assay [16] has as its system COLO 205.

For `Cc1cccc(/N=C2\NC(=O)C(CC(=O)Nc3ccc(C)cc3C)S2)c1` (stereo unspecified), the GI50 was > 100 µM (inactive) in assay [1]; 60.4 µM (inactive) in [2]; > 100 µM (inactive) in [3]; > 100 µM (inactive) in assay [4]; 65.8 µM (inactive) in [5]; 40.4 µM (inactive) in assay [6]. Moreover, the GI50 in assay [7] was > 100 µM (inactive); in [8], 84.3 µM (inactive); in assay [9], 64.3 µM (inactive); in assay [10], 69 µM (inactive); in assay [11], > 100 µM (inactive); in assay [12] it was > 100 µM (inactive). In addition, the values for the GI50 in [13], in [14] and in [15] were 52.6 µM (inactive), > 100 µM (inactive) and 66.7 µM (inactive), respectively.

On to `Cn1cnc([N+](=O)[O-])c1Sc1nccc(O)n1`, for which the GI50 in [1], in assay [2], in assay [16], in assay [4], in [5] and in [6] was > 100 µM (inactive) each time. The GI50 in assay [7], in assay [8], in assay [9], in [10], in assay [12] and in [13] was > 100 µM (inactive) in each case. The GI50 in [14] and in [15] was > 100 µM (inactive) throughout.

On to `CC1=C2C(O)C(C(C)CO)C(O)CC2(C)C(O)CC1` (stereo unspecified), for which the GI50 in assay [1], in assay [2], in [16], in assay [3], in [4] and in assay [6] was > 100 µM (inactive) each time. Besides, the GI50 in [7], in assay [8], in assay [9], in assay [10], in assay [11] and in assay [12] was > 100 µM (inactive) each time. In addition, the GI50 in [13], in assay [14] and in assay [15] was > 100 µM (inactive) in each case.

For the molecule `C/C(=C1/N=C(c2cc([N+](=O)[O-])ccc2Cl)N(C2=CC=C(Cl)CC2)C1=O)c1cc2ccccc2oc1=O`, the GI50 is 23.4 µM (inactive) in assay [1]; 32.7 µM (inactive) in [2]; 47.6 µM (inactive) in [16]; 20 µM (inactive) in assay [3]; 27.6 µM (inactive) in assay [4]; > 100 µM (inactive) in [5]. Besides, the GI50 is 54.6 µM (inactive) in assay [6]; 28.5 µM (inactive) in [7]; 29 µM (inactive) in assay [8]; 14.4 µM (inactive) in assay [9]; 36.8 µM (inactive) in assay [10]; 36.9 µM (inactive) in assay [12]. The figures for the GI50 in assay [13], in assay [14] and in assay [15] were 28.6 µM (inactive), 26.5 µM (inactive) and 21.8 µM (inactive), respectively.

Consider `COC(=O)C1=C(C)N(NC(=O)c2ccccc2)C2(O)CCCC(=O)C12C` (stereo unspecified), for which the GI50 in [1] is > 100 µM (inactive); in [2], > 100 µM (inactive); in assay [16], > 100 µM (inactive); in [4] it was > 100 µM (inactive); in assay [7], > 100 µM (inactive); in assay [8], 4.37 µM (inactive). The GI50 in assay [9], in assay [10], in [11], in [14] and in assay [15] was > 100 µM (inactive) in each case.

As to `COc1ccc(/C(=N\NC(=O)NN)C(c2ccc(OC)cc2)C2(O)C(=O)Nc3c(Cl)cc(Cl)cc32)cc1` (stereo unspecified), the GI50 is > 100 µM (inactive) in assay [16]; 13.8 µM (inactive) in assay [3]; > 100 µM (inactive) in [4]; 5.93 µM (inactive) in [6]; > 100 µM (inactive) in assay [7]; > 100 µM (inactive) in assay [8]. In addition, the GI50 in assay [10], in assay [11], in assay [12], in assay [14] and in assay [15] was > 100 µM (inactive) throughout.

For `O=[N+]([O-])c1cccc(C2=NOC3CCCC23)c1` (stereo unspecified), the GI50 is > 100 µM (inactive) in assay [1]; < 0.01 µM (active) in assay [2]; > 100 µM (inactive) in assay [16]; > 100 µM (inactive) in assay [3]; > 100 µM (inactive) in [4]; > 100 µM (inactive) in assay [5]. Besides, the GI50 in [6], in [7], in assay [8], in assay [9], in [10] and in assay [12] was > 100 µM (inactive) each time. For the same molecule, the GI50 in assay [14] and in assay [15] was > 100 µM (inactive) in each case.

For `CC(C)c1ccc(O)c(=O)cc1` [GAMMA-THUJAPLICIN], the GI50 in assay [1] is 19.6 µM (inactive); in [2], 11.1 µM (inactive); in assay [16], 3.74 µM (inactive); in assay [3], 2.02 µM (inactive); in assay [4], 10.4 µM (inactive); in assay [5], 9.33 µM (inactive). The GI50 was 2.79 µM (inactive) in assay [6]; 15.3 µM (inactive) in [7]; 3.99 µM (inactive) in assay [8]; 3.39 µM (inactive) in assay [9]; 2.48 µM (inactive) in assay [10]; 22.2 µM (inactive) in assay [11]. In addition, the GI50 in [12] was 4.06 µM (inactive); in [13] it was 1.66 µM (inactive); in [14], 3.38 µM (inactive); in assay [15], 3.42 µM (inactive).

Regarding `CCOC(=O)/C(=C/c1ccccn1)C(=O)c1ccccc1`, the GI50 in assay [1] was 18.9 µM (inactive); in assay [2], 14.5 µM (inactive); in assay [16], 14.2 µM (inactive); in assay [3], 2.19 µM (inactive); in [4], 16.3 µM (inactive); in assay [5] it was 5.19 µM (inactive). Moreover, the GI50 was 8.34 µM (inactive) in assay [6]; 13.5 µM (inactive) in assay [7]; 15.9 µM (inactive) in [8]; 5.47 µM (inactive) in [9]; 14.1 µM (inactive) in assay [10]; 11.2 µM (inactive) in assay [11]. Also, the GI50 was 19.1 µM (inactive) in assay [12], 3.32 µM (inactive) in [13], 13.8 µM (inactive) in assay [14] and 16.3 µM (inactive) in [15].

As to `CCN(CC)C(=S)SS(C)(=O)=O`, the GI50 is 22.4 µM (inactive) in assay [2]; 15.4 µM (inactive) in assay [16]; 5.12 µM (inactive) in assay [3]; > 100 µM (inactive) in assay [4]; < 0.01 µM (active) in assay [5]; 15.8 µM (inactive) in assay [6]. Also, the GI50 is 26.7 µM (inactive) in [7]; 14.8 µM (inactive) in [8]; < 0.01 µM (active) in assay [9]; 11 µM (inactive) in [11]; 23.2 µM (inactive) in assay [14]; 19 µM (inactive) in assay [15].

Take `C/C=C/CP(=O)(c1ccccc1)c1ccccc1`: the GI50 in assay [1], in assay [16], in assay [3], in assay [4], in [5] and in assay [6] was > 100 µM (inactive) each time. Moreover, the GI50 in [7], in assay [8], in assay [9], in assay [10], in assay [11] and in assay [13] was > 100 µM (inactive) throughout. Further, the GI50 in assay [14] and in assay [15] was > 100 µM (inactive) each time.

For `CCOC(=O)C12CC1(C(=O)OCC)C1CCC2C1` (stereo unspecified), the GI50 in assay [1] was > 100 µM (inactive); in assay [2] it was > 100 µM (inactive); in assay [16], > 100 µM (inactive); in assay [3] it was 71.6 µM (inactive); in assay [4] it was > 100 µM (inactive); in assay [5], 68.5 µM (inactive). Further, the GI50 in assay [6] was 90.6 µM (inactive); in assay [7], 91.8 µM (inactive); in assay [8], > 100 µM (inactive); in assay [10], 97.3 µM (inactive); in assay [12], > 100 µM (inactive); in assay [13], 49.9 µM (inactive). The GI50 in assay [14] is 44.7 µM (inactive); in [15] it was > 100 µM (inactive).

In the case of `CC(=O)OCC1OC(Nc2nc(O)n(C)c(=O)c2-c2csc(N)n2)C(OC(C)=O)C(OC(C)=O)C1OC(C)=O` (stereo unspecified), the GI50 was > 100 µM (inactive) in assay [1]; > 100 µM (inactive) in assay [2]; > 100 µM (inactive) in assay [16]; 70 µM (inactive) in assay [3]; > 100 µM (inactive) in [4]; > 100 µM (inactive) in [5]. The GI50 in assay [6], in [7], in [8], in assay [9], in [10] and in [12] was > 100 µM (inactive) each time. In addition, the GI50 in assay [13], in assay [14] and in assay [15] was > 100 µM (inactive) each time.

`O=c1c2ccccc2sc2nc(O)nn12`: the GI50 in [2], in assay [16], in assay [3], in assay [4], in [5] and in [6] was > 100 µM (inactive) in each case. Moreover, the GI50 in assay [7], in assay [8], in [10], in assay [11], in assay [12] and in assay [13] was > 100 µM (inactive) each time. The GI50 in [14] and in assay [15] was > 100 µM (inactive) throughout.

(Values after ChEMBL document CHEMBL1201862, “PubChem BioAssay data set” (2004).)
